For ten compounds, inhibition results are on record in patent publication EP4786487A1, “PEPTIDE” (Peptidream Inc, priority 2023, dated 2025).

Starred links: 1 amine or outer side, 2 acyl side, 3 side chain; linkers in the order of their positions; H or OH if unused. Positions of bridges follow the written chain, without caps; N, C: chain ends. Non-standard residues stand in square brackets, D forms with d. Residues, ends and D or L forms follow the SMILES beside them. *: point of attachment. Phe(3-OCH2COOH) = N[C@@H](Cc1cccc(OCC(=O)O)c1)C(=O)O; Phe(4-COOH) = N[C@@H](Cc1ccc(C(=O)O)cc1)C(=O)O; Trp(6-aza) = N[C@@H](Cc1c[nH]c2cnccc12)C(=O)O; Trp(7-aza) = N[C@@H](Cc1c[nH]c2ncccc12)C(=O)O; Piperazinyl(4-CH2COOH) = O=C(O)CN1CCN(*)CC1; Phe(3-OMe) = COc1cccc(C[C@H](N)C(=O)O)c1; Gly(N(CH2)3COOH) = O=C(O)CCCNCC(=O)O; NMe4Pal = CN[C@@H](Cc1ccncc1)C(=O)O; X1 = CCCCCCC[C@H](N[*:1])C(=O)[*:2]; Gly(N-(CH2)3OMe) = COCCCNCC(=O)O; NMeF = CN[C@@H](Cc1ccccc1)C(=O)O; 3Pal = N[C@@H](Cc1cccnc1)C(=O)O; 4Pal = N[C@@H](Cc1ccncc1)C(=O)O; Ahp(2) = CCCCC[C@H](N)C(=O)O; Carboxymethyl = O=C(O)C*; NMeA = CN[C@@H](C)C(=O)O; Sar = CNCC(=O)O

One assay deals with T1, Myostatin (Homo sapiens, UniProt O14793).
T1 construct: active myostatin (also called mature myostatin) is a homodimer consisting of two C-terminal growth factor domains; purchased R&D systems 788-G8/CF
T1 sequence (O14793 267-375): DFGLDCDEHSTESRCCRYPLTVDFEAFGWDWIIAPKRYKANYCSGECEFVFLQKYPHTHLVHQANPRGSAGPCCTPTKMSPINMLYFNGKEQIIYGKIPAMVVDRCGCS
Kind of assay: HepG2 reporter gene assay, Evaluation Procedure (2): 2-concentrations assay, myostatin inhibition. Format: cell-based. As to conditions: Myostatin 10 ng/mL, HepG2; for inhibition at 0.03 µM: peptide 30nM, read-out: Myostatin Inhibition 30nM; for inhibition at 0.1 µM: peptide 100nM, read-out: Myostatin Inhibition 100nM. Put shortly:
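HepG2 cells (HB-8065, ATCC) carrying the transfected pGL3(CAGA)12-luc reporter plasmid were treated with myostatin (788-G8/CF, R&D systems) at a final concentration of 10 ng/mL plus peptide and incubated at 37°C, 5% CO2 for 20 to 24 hours. Luminescence was read after adding PBS mixed 1:1 with One-Glo substrate, and inhibition rate was calculated.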
(In a reporter assay the amount or activity of a reporter protein is the signal.)

In the next assay the target is T2, GDF-11 (Homo sapiens, UniProt O95390).
T2 construct: purchased R&D systems 1958-GD-G8/CF
T2 sequence (O95390 299-407): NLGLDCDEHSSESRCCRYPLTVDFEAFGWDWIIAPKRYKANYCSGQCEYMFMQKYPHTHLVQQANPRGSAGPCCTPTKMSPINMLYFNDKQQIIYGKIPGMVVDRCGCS
The assay can be described thus: HepG2 reporter gene assay, Evaluation Procedure (2): 2-concentrations assay, GDF-11 inhibition. Format: cell-based. As to conditions: GDF-11 10 ng/mL; for inhibition at 0.03 µM: HepG2, peptide 30nM, read-out: GDF11 Inhibition 30nM; for inhibition at 0.1 µM: HepG2, peptide 100nM, read-out: GDF11 Inhibition 100nM. In outline:
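HepG2 cells carrying the transfected pGL3(CAGA)12-luc reporter, a pGL3 vector with luciferase placed downstream of 12 CAGA repeats, were stimulated with GDF-11 at a final 10 ng/mL together with test peptide. Blank wells received no GDF-11 and no peptide. Plates were incubated 20 to 24 hours at 37°C with 5% CO2. Luminescence from One-Glo substrate was read to calculate percent inhibition.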

A word on the inhibition: it is the change of the read-out against control, counted positive when it falls. As for `CC[C@H](C)[C@@H]1NC(=O)[C@H](Cc2ccccc2)N(C)C(=O)[C@H](Cc2ccc(O)cc2)NC(=O)[C@H](Cc2c[nH]c3ncccc23)NC(=O)[C@H](C)NC(=O)CN(CCCC(=O)O)C(=O)CSC[C@H](C(=O)O)NC(=O)[C@H](Cc2ccccc2)N(C)C(=O)[C@H](C)N(C)C(=O)[C@H](CC(C)C)NC(=O)[C@H](Cc2ccccc2)N(C)C(=O)[C@H](CCCNC(=N)N)NC(=O)[C@H](Cc2ccc(OCC(=O)O)cc2)NC(=O)[C@H](Cc2cccc(OC)c2)NC(=O)[C@H](C)N(C)C1=O` [Myostatin_99_v127] ({CH2CO}-[Gly(N(CH2)3COOH)]A[Trp(7-aza)]Y[NMeF]I[NMeA][Phe(3-OMe)]Y(Carboxymethyl)R[NMeF]L[NMeA][NMeF][dC]-OH; thioether N-15), on Myostatin, the inhibition at 0.03 µM was found to be 31% and the inhibition at 0.1 µM is 57%. Further, at GDF-11, the inhibition at 0.03 µM was 0% and the inhibition at 0.1 µM is 0%.

On to `CCCCC[C@@H]1NC(=O)[C@H](Cc2ccccc2)N(C)C(=O)[C@H](CCCNC(=N)N)NC(=O)[C@H](Cc2cccnc2)NC(=O)[C@H](Cc2cccc(OCC(=O)O)c2)NC(=O)CN(C)C(=O)[C@H]([C@@H](C)CC)NC(=O)[C@H](Cc2ccccc2)N(C)C(=O)[C@H](Cc2ccc(O)cc2)NC(=O)[C@H](Cc2c[nH]c3ccccc23)NC(=O)[C@H](C)NC(=O)[C@H](C)NC(=O)CSC[C@H](C(=O)O)NC(=O)[C@H](Cc2ccccc2)N(C)C(=O)[C@H](C)N(C)C1=O` [Myostatin_99_v205] ({CH2CO}-AAWY[NMeF]I[Sar][Phe(3-OCH2COOH)][3Pal]R[NMeF][Ahp(2)][NMeA][NMeF][dC]-OH; thioether N-15), for which, on Myostatin, the inhibition at 0.03 µM amounted to 37% and the inhibition at 0.1 µM worked out at 69%. At GDF-11, the inhibition at 0.03 µM came to 6% and the inhibition at 0.1 µM turned out to be 1%.

For `CCCCC[C@@H]1NC(=O)[C@H](Cc2ccccc2)N(C)C(=O)[C@H](CCCNC(=N)N)NC(=O)[C@H](Cc2ccc(C(=O)O)cc2)NC(=O)[C@H](Cc2cccc(OCC(=O)O)c2)NC(=O)CN(C)C(=O)[C@H]([C@@H](C)CC)NC(=O)[C@H](Cc2ccccc2)N(C)C(=O)[C@H](Cc2ccc(O)cc2)NC(=O)[C@H](Cc2c[nH]c3ccccc23)NC(=O)[C@H](C)NC(=O)[C@H](C)NC(=O)CSC[C@H](C(N)=O)NC(=O)[C@H](Cc2ccccc2)N(C)C(=O)[C@H](C)N(C)C1=O` [Myostatin_99_v206] ({CH2CO}-AAWY[NMeF]I[Sar][Phe(3-OCH2COOH)][Phe(4-COOH)]R[NMeF][Ahp(2)][NMeA][NMeF][dC]-NH2; thioether N-15), at Myostatin, the inhibition at 0.03 µM worked out at 88% and the inhibition at 0.1 µM amounted to 97%. At GDF-11, the inhibition at 0.03 µM worked out at 0% and the inhibition at 0.1 µM amounted to 0%.

As for `CCCCCCC[C@@H]1NC(=O)[C@H](Cc2ccccc2)N(C)C(=O)[C@H](CCCNC(=N)N)NC(=O)[C@H](Cc2ccc(C(=O)O)cc2)NC(=O)[C@H](Cc2cccc(OCC(=O)O)c2)NC(=O)CN(C)C(=O)[C@H]([C@@H](C)CC)NC(=O)[C@H](Cc2ccccc2)N(C)C(=O)[C@H](Cc2ccc(O)cc2)NC(=O)[C@H](Cc2c[nH]c3cnccc23)NC(=O)[C@H](C)NC(=O)[C@H](C)NC(=O)CSC[C@H](C(=O)O)NC(=O)[C@H](Cc2ccccc2)N(C)C(=O)[C@H](C)N(C)C1=O` [Myostatin_99_v208] ({CH2CO}-AA[Trp(6-aza)]Y[NMeF]I[Sar][Phe(3-OCH2COOH)][Phe(4-COOH)]R[NMeF][X1][NMeA][NMeF][dC]-OH; thioether N-15), the inhibition at 0.03 µM is 98% on Myostatin and 0% on GDF-11. In addition, the inhibition at 0.1 µM on Myostatin turned out to be 100%; on GDF-11 it was 20%.

Take `CCCCCCC[C@@H]1NC(=O)[C@H](Cc2ccncc2)N(C)C(=O)[C@H](CCCNC(=N)N)NC(=O)[C@H](Cc2ccc(C(=O)O)cc2)NC(=O)[C@H](Cc2cccc(OCC(=O)O)c2)NC(=O)CN(C)C(=O)[C@H]([C@@H](C)CC)NC(=O)[C@H](Cc2ccccc2)N(C)C(=O)[C@H](Cc2ccc(O)cc2)NC(=O)[C@H](Cc2c[nH]c3ccccc23)NC(=O)[C@H](C)NC(=O)[C@H](C)NC(=O)CSC[C@H](C(=O)O)NC(=O)[C@H](Cc2ccccc2)N(C)C(=O)[C@H](C)N(C)C1=O` [Myostatin_99_v210] ({CH2CO}-AAWY[NMeF]I[Sar][Phe(3-OCH2COOH)][Phe(4-COOH)]R[NMe4Pal][X1][NMeA][NMeF][dC]-OH; thioether N-15): on Myostatin, the inhibition at 0.03 µM is 95% and the inhibition at 0.1 µM was determined as 99%. In addition, at GDF-11, the inhibition at 0.03 µM worked out at 0% and the inhibition at 0.1 µM came to 7%.

Regarding `CCCCCCC[C@@H]1NC(=O)[C@H](Cc2ccccc2)N(C)C(=O)[C@H](CCCNC(=N)N)NC(=O)[C@H](Cc2ccc(C(=O)O)cc2)NC(=O)[C@H](Cc2cccc(OCC(=O)O)c2)NC(=O)CN(C)C(=O)[C@H]([C@@H](C)CC)NC(=O)[C@H](Cc2ccccc2)N(C)C(=O)[C@H](Cc2ccc(O)cc2)NC(=O)[C@H](Cc2c[nH]c3ccccc23)NC(=O)[C@H](C)NC(=O)[C@H](C)NC(=O)CSC[C@H](C(=O)O)NC(=O)[C@H](Cc2ccncc2)N(C)C(=O)[C@H](C)N(C)C1=O` [Myostatin_99_v213] ({CH2CO}-AAWY[NMeF]I[Sar][Phe(3-OCH2COOH)][Phe(4-COOH)]R[NMeF][X1][NMeA][NMe4Pal][dC]-OH; thioether N-15), on Myostatin, the inhibition at 0.03 µM was 90% and the inhibition at 0.1 µM came to 98%. For the same compound, on GDF-11, the inhibition at 0.03 µM stood at 0% and the inhibition at 0.1 µM stood at 0%.

As for `CCCCCCC[C@@H]1NC(=O)[C@H](Cc2ccccc2)N(C)C(=O)[C@H](CCCNC(=N)N)NC(=O)[C@H](Cc2ccncc2)NC(=O)[C@H](Cc2cccc(OCC(=O)O)c2)NC(=O)CN(C)C(=O)[C@H]([C@@H](C)CC)NC(=O)[C@H](Cc2ccccc2)N(C)C(=O)[C@H](Cc2ccc(O)cc2)NC(=O)[C@H](Cc2c[nH]c3ccccc23)NC(=O)[C@@H](CCC(=O)O)NC(=O)[C@H](C)NC(=O)CSC[C@H](C(=O)O)NC(=O)[C@H](Cc2ccccc2)N(C)C(=O)[C@H](C)N(C)C1=O` [Myostatin_99_v218] ({CH2CO}-A[dE]WY[NMeF]I[Sar][Phe(3-OCH2COOH)][4Pal]R[NMeF][X1][NMeA][NMeF][dC]-OH; thioether N-15), on Myostatin, the inhibition at 0.03 µM turned out to be 44% and the inhibition at 0.1 µM was 74%. On GDF-11, the inhibition at 0.03 µM is 0% and the inhibition at 0.1 µM was determined as 0%.

As to `CCCCCCC[C@@H]1NC(=O)[C@H](Cc2ccccc2)N(C)C(=O)[C@H](CCCNC(=N)N)NC(=O)[C@H](Cc2ccc(C(=O)O)cc2)NC(=O)[C@H](Cc2cccc(OCC(=O)O)c2)NC(=O)CN(C)C(=O)[C@H]([C@@H](C)CC)NC(=O)[C@H](Cc2ccccc2)N(C)C(=O)[C@H](Cc2ccc(O)cc2)NC(=O)[C@H](Cc2c[nH]c3ccccc23)NC(=O)[C@H](C)NC(=O)[C@H](C)NC(=O)CSC[C@@H](C(=O)N2CCN(CC(=O)O)CC2)NC(=O)[C@H](Cc2ccccc2)N(C)C(=O)[C@H](C)N(C)C1=O` [Myostatin_99_v220] ({CH2CO}-AAWY[NMeF]I[Sar][Phe(3-OCH2COOH)][Phe(4-COOH)]R[NMeF][X1][NMeA][NMeF]C-{Piperazinyl(4-CH2COOH)}; thioether N-15), the inhibition at 0.03 µM on Myostatin was found to be 95%; at GDF-11 it was 0%. Also, the inhibition at 0.1 µM was 99% at Myostatin and 5% at GDF-11.

`CCCCCCC[C@@H]1NC(=O)[C@H](Cc2ccccc2)N(C)C(=O)[C@H](CCCNC(=N)N)NC(=O)[C@H](Cc2ccc(C(=O)O)cc2)NC(=O)[C@H](Cc2ccncc2)NC(=O)CN(C)C(=O)[C@H]([C@@H](C)CC)NC(=O)[C@H](Cc2ccccc2)N(C)C(=O)[C@H](Cc2ccc(O)cc2)NC(=O)[C@H](Cc2c[nH]c3ccccc23)NC(=O)[C@H](C)NC(=O)CN(CC(=O)O)C(=O)CSC[C@H](C(=O)O)NC(=O)[C@H](Cc2ccccc2)N(C)C(=O)[C@H](C)N(C)C1=O` [Myostatin_99_v222]: on Myostatin, the inhibition at 0.03 µM was determined as 93% and the inhibition at 0.1 µM came to 99%. Besides, on GDF-11, the inhibition at 0.03 µM amounted to 0% and the inhibition at 0.1 µM was found to be 8%.

With `CCCCCCC[C@@H]1NC(=O)[C@H](Cc2ccccc2)N(C)C(=O)[C@H](CCCNC(=N)N)NC(=O)[C@H](Cc2ccc(C(=O)O)cc2)NC(=O)[C@H](Cc2ccncc2)NC(=O)CN(C)C(=O)[C@H]([C@@H](C)CC)NC(=O)[C@H](Cc2ccccc2)N(C)C(=O)[C@H](Cc2ccc(O)cc2)NC(=O)[C@H](Cc2c[nH]c3ccccc23)NC(=O)[C@H](C)NC(=O)CN(CCCOC)C(=O)CSC[C@H](C(=O)O)NC(=O)[C@H](Cc2ccccc2)N(C)C(=O)[C@H](C)N(C)C1=O` [Myostatin_99_v223] ({CH2CO}-[Gly(N-(CH2)3OMe)]AWY[NMeF]I[Sar][4Pal][Phe(4-COOH)]R[NMeF][X1][NMeA][NMeF][dC]-OH; thioether N-15), the results for the inhibition at 0.03 µM at Myostatin and on GDF-11 were 94% and 0%, respectively. The inhibition at 0.1 µM on Myostatin was 99%; on GDF-11, 28%.
